In experiment [1] the target is T1, GST-ARV1 (full-length ARV1) (Homo sapiens, UniProt Q9H2C2).
T1 construct: Expresses full length ARV1; made in house; host or cells: E. coli BL21 (pGEX-4T1)
T1 sequence (Q9H2C2 1-271): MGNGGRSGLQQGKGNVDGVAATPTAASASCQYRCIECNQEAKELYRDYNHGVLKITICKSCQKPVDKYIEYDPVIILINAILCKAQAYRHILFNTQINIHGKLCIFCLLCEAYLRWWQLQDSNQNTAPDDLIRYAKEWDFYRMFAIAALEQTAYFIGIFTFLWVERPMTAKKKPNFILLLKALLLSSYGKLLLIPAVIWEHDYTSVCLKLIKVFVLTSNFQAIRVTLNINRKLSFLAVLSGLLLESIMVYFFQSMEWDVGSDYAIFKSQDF
Briefly: Protein-lipid liposome binding assay (ultracentrifugation, Western blot). The note with it: protein detected in final pellet. As for the experimental part:
Lyophilized lipids were reconstituted in chloroform at 10 mg/ml and stored in glass tubes with Teflon tops at −20 °C until use. One milliliter of 10 mg/ml stock was dried under a stream of nitrogen in a glass tube until a lipid cake/film was formed. The lipid cake was then rehydrated in BLT rehydration buffer (5 mM Tris/HCl, pH 7.4, containing 150 mM NaCl) to a concentration of 1 mg/ml. Lipid suspensions were subjected to three freeze/thaw cycles using a dry ice ethanol/[…] water bath to encapsulate the buffer and improve liposome formation. The suspension and lipid extruder were equilibrated to temperature for 10 min and liposomes were extruded using […] polycarbonate membranes (Avestin). Liposomes were made by mixing stock lipid PL (1 mg/ml) with PC (10 mg/ml).
Cholesterol composition liposomes were rehydrated with cholesterol rehydration buffer (10 mM Hepes, pH 7.4, containing 150 mM KCl).
Liposomes were serial diluted in floatation buffer (100 mM NaCl, 2 mM EDTA, pH 5.5) to a final concentration of 0.1 mg/ml. Nine hundred microliters of liposome solution was placed in clear ultracentrifuge tubes and mixed with 100 μl of 0.01 μg/ml of protein. The liposome/protein solution was incubated at room temperature for 1 h with occasional shaking. An initial 100 μl of liposome/protein solution (liposomes) was removed and the remaining 900 μl was centrifuged at 50,000g for 20 min at 4 °C. The pellet was resuspended in 800 μl of fresh floatation buffer, centrifuged as above, and 800 μl of supernatant was removed (wash 1). This was repeated a second time and again 800 μl of supernatant was removed (wash 2). The final pellet was resuspended in 100 μl of floatation buffer plus SDS treatment buffer (pellet). Thirty microliters of each fraction was run on a 15% SDS-PAGE gel and probed with an anti-GST monoclonal antibody at a 1:1500 dilution.
On the technique in general: A western blot detects proteins with antibodies after separation by electrophoresis.

For another experiment, the target named is T2, 6XHIS-N98 E70A (Homo sapiens, UniProt Q9H2C2, E70A).
T2 construct: made in house; host or cells: E. coli BL21
T2 sequence (Q9H2C2 1-98 E70A): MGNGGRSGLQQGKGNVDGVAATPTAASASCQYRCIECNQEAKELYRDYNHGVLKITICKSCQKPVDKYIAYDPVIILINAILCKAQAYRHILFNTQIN
Kind of experiment: HTRF phospholipid lipid-binding assay, mutant. Details: key to Bio-PL, EC50, M ± S.D.: NC, no change. Conditions: biotinylated lipid, NC = no change vs N98. An excerpt:
(§1) An HTRF assay was developed for 6XHIS-ARV1-N98-lipid binding. HTRF measures analyte interactions through fluorescence resonance energy transfer technology and time-resolved measurements ([53]). The interaction between two molecules can be quantified through binding each individual molecule involved with a fluorescent label and then analyzing the transfer of energy between the initial donor fluorophore and the secondary acceptor fluorophore. Following excitation of the first fluorophore, transfer of energy can only occur if the molecules bound with the fluorescent tags are within proximity to each other.
(§2) Assays were plated in 384-well flat bottom microplates (Greiner Bio, catalog #784075-25). Proteins were diluted using binding buffer (20 mM Hepes buffer, pH 7.2, containing 0.1% BSA, and 0.01% Tween20) to a stock concentration of 0.75 μM, and biotinylated phospholipids were dispensed, dried under nitrogen gas, and resuspended in binding buffer to a stock concentration of 50 μM. The lipid stock solution was diluted by 1:2 for a series of 12 serial dilutions. For the assay, in sequential order, 6 μl of binding buffer was loaded into the plate in triplicate for each dilution of phospholipid. To this, 2 μl of 0.75 μM 6XHIS-ARV1-N98 was added, followed by 2 μl of biotinylated phospholipid. Immediately following each addition loaded into the plate, the plate was centrifuged for 1 min at 1000 rpm to bring the contents to the bottom of the well. Next, detection antibodies were mixed with detection buffer (20 mM Hepes buffer, pH 8.5, containing 0.01% BSA and 200 mM KF). Antibodies were a MAb anti-6XHIS Europium kryptate-conjugated D1 fluorescent antibody (Cisbio, #61HISKLA) and Streptavidin-conjugated d2 fluorescent antibody (Cisbio, #610SADLA). For each 1000 μl of detection buffer, 5 μl of each antibody was added just prior to loading 10 μl into each well. The plate was again centrifuged for 1 min at 1000 rpm and stored in a sealed container overnight, in the dark. Plates were read on a PerkinElmer EnVision Xcite Multilabel plate reader.
(§3) Curves were logarithmically transformed and normalized to a common scale before being fit with a nonlinear regression of the agonist against the normalized response. This generated half maximal effective concentration values (EC50; M) that could then be compared between different lipids. In the context of our study, EC50 values were defined as a measure of protein sensitivity to binding to a particular lipid within a dose response curve. For phospholipid competition analysis, IC50; M values were determined using nonlinear regression of the inhibitor against normalized response.

Another experiment has as its target T3, 6XHIS-N98 D72A (Homo sapiens, UniProt Q9H2C2, D72A).
T3 construct: made in house; host or cells: E. coli BL21
T3 sequence (Q9H2C2 1-98 D72A): T2 sequence (Q9H2C2 1-98 E70A) with A70E, D72A
Kind of experiment: HTRF phospholipid lipid-binding assay, mutant. Details: key: NC, no change. Conditions: biotinylated lipid; NC = no change vs N98.
From the text: as §1, §2, §3
Background: TR-FRET usually uses a lanthanide donor and a delayed reading to cut background.

Another experiment concerns the target T4, 6XHIS-N98 C34/37A (Homo sapiens, UniProt Q9H2C2, C34A/C37A).
T4 construct: made in house; host or cells: E. coli BL21
T4 sequence (Q9H2C2 1-98 C34A/C37A): T2 sequence (Q9H2C2 1-98 E70A) with C34A, C37A, A70E
Briefly: HTRF phospholipid lipid-binding assay, mutant. Details: key: NC, no change. The note with it: biotinylated lipid; NC = no change vs N98.
From the text: as §1, §2, §3

In another experiment the target is T5, 6XHIS-N98 N94A (Homo sapiens, UniProt Q9H2C2, N94A).
T5 construct: made in house; host or cells: E. coli BL21
T5 sequence (Q9H2C2 1-98 N94A): T2 sequence (Q9H2C2 1-98 E70A) with A70E, N94A
Briefly: HTRF phospholipid lipid-binding assay, mutant. Details: key: NC, no change. Conditions: biotinylated lipid; NC = no change vs N98.
From the text: as §1, §2, §3

In another experiment the target is T6, 6XHIS-N98 C58/61A (Homo sapiens, UniProt Q9H2C2, C58A/C61A).
T6 construct: made in house; host or cells: E. coli BL21
T6 sequence (Q9H2C2 1-98 C58A/C61A): T2 sequence (Q9H2C2 1-98 E70A) with C58A, C61A, A70E
Briefly: HTRF phospholipid lipid-binding assay, mutant. Details: key: NC, no change. Conditions: biotinylated lipid; NC = no change vs N98.
From the text: as §1, §2, §3

Residue numbers refer to the chain shown, from its start. “Also recorded” adds a separate entry of the source.

Consider `CCCCC/C=C\C/C=C\CCCCCCCC(=O)OC[C@H](COP(=O)(O)OCC(O)COP(=O)(O)OC[C@@H](COC(=O)CCCCCCC/C=C\C/C=C\CCCCC)OC(=O)CCCCCCC/C=C\C/C=C\CCCCC)OC(=O)CCCCCCC/C=C\C/C=C\CCCCC` (stereo partly shown) [CL, cardiolipin], for which, in experiment [1], the “binding to PC:PL liposomes” value is “bound”. The “Bio-PL, EC50, M ± S.D.” value on 6XHIS-N98 E70A, at 6XHIS-N98 D72A, on 6XHIS-N98 C34/37A, at 6XHIS-N98 N94A and on 6XHIS-N98 C58/61A was “NC” in each case.
As to `CCCCCCCCCCCCCCCC(=O)OC[C@H](COP(=O)(O)O)OC(=O)CCCCCCCCCCCCCCC` [PA, phosphatidic acid], the “binding to PC:PL liposomes” value in experiment [1] was “bound”. The “Bio-PL, EC50, M ± S.D.” value was “reduced binding” on 6XHIS-N98 E70A; “reduced binding” at 6XHIS-N98 D72A; “increased” at 6XHIS-N98 C34/37A; “reduced binding” at 6XHIS-N98 N94A; “reduced binding” on 6XHIS-N98 C58/61A.
Consider `CCCCCCCC/C=C\CCCCCCCC(=O)OC[C@H](COP(=O)(O)OCC(O)CO)OC(=O)CCCCCCC/C=C\CCCCCCCC` (stereo partly shown) [PG, phosphatidylglycerol], for which the “binding to PC:PL liposomes” value in experiment [1] is “bound”. Moreover, the “Bio-PL, EC50, M ± S.D.” value was “NC” at 6XHIS-N98 E70A; “NC” at 6XHIS-N98 D72A; “reduced” at 6XHIS-N98 C34/37A; “reduced” at 6XHIS-N98 N94A; “NC” on 6XHIS-N98 C58/61A.
Take `CCCCCCCCCCCCCCCCCC(=O)OC[C@H](COP(=O)(O)OC[C@H](N)C(=O)O)OC(=O)CCCCCCCCCCCCCCCCC` [PS, phosphatidylserine]: the “binding to PC:PL liposomes” value in experiment [1] is reported as “bound”. Moreover, the “Bio-PL, EC50, M ± S.D.” value at 6XHIS-N98 E70A, at 6XHIS-N98 D72A, on 6XHIS-N98 C34/37A, on 6XHIS-N98 N94A and at 6XHIS-N98 C58/61A was “NC” each time.
Consider `CCCCCC(=O)O[C@H](COC(=O)CCCCCNC(=O)CCCC[C@@H]1SC[C@@H]2NC(=O)N[C@@H]21)COP(=O)(O)O[C@H]1[C@H](O)[C@@H](O)[C@H](OP(=O)(O)O)[C@@H](O)[C@H]1O` [reference compound], for which the “Bio-PL, EC50, M ± S.D.” value is reported as “weakened” on 6XHIS-N98 E70A, “weakened” at 6XHIS-N98 D72A, “weakened; also recorded: reduction” at 6XHIS-N98 N94A and “weakened” at 6XHIS-N98 C58/61A.
As for phosphatidylcholine [PC], the “binding to PC:PL liposomes” value in experiment [1] is recorded as “very weakly”. The “Bio-PL, EC50, M ± S.D.” value at 6XHIS-N98 E70A, at 6XHIS-N98 D72A, on 6XHIS-N98 C34/37A, on 6XHIS-N98 N94A and at 6XHIS-N98 C58/61A was “NC” throughout.
In general, EC50 refers to the concentration giving half of the maximal effect. On to phosphatidylethanolamine [PE], for which the “binding to PC:PL liposomes” value in experiment [1] is reported as “Neither”. Further, the EC50 on 6XHIS-N98 E70A (read-out: Bio-PL, EC50, M ± S.D.) was determined as 190 nM. Moreover, the “Bio-PL, EC50, M ± S.D.” value at 6XHIS-N98 D72A, on 6XHIS-N98 C34/37A, at 6XHIS-N98 N94A and on 6XHIS-N98 C58/61A was “NC” each time.

The values above are taken from article PMC11952846, “The sterol-regulating human ARV1 binds cholesterol and phospholipids through its conserved ARV1 homology domain” (The Journal of Biological Chemistry, 2025).
